According to ChEMBL document CHEMBL4052672, “Discovery of β-d-2'-deoxy-2'-dichlorouridine nucleotide prodrugs as potent inhibitors of hepatitis C virus replication” (Bioorg Med Chem Lett, 2017):
The source made the active and inactive calls. The rule behind the calls is not given here.

Legend:
Hepatitis C virus [1] = test: Antiviral activity against HCV genotype 1b subgenomic replicon; format: functional, Hepacivirus hominis
[2] = Cytotoxic activity against human HuH7 cells incubated for 6 days by CCK8 assay; format: cell-based, Huh-7
Hepatitis C virus [3] = test: Antiviral activity against HCV genotype 1b subgenomic replicon infected in human HuH7 Luc-neo cells assessed as inhibition of viral replication by luciferase reporter gene assay; format: functional, cell-based, Hepacivirus hominis; conditions: Huh-7
[4] = Stability in human intestinal […] S9 fraction assessed as half life at 2 uM by LC-MS/MS method; format: ADME
[5] = Stability in human liver S9 fraction assessed as half life at 2 uM by LC-MS/MS method; format: ADME, tissue-based
[6] = Stability in human whole blood assessed as half life at 2 uM by LC-MS/MS method; format: ADME
[7] = Inhibition of HCV genotype 1b NS5B RNA dependent RNA polymerase; design: species or system Hepatitis C virus subtype 1b
Hepatitis C virus [8] = test: Antiviral activity against HCV genotype 5a subgenomic replicon infected in human Huh7-Lunet cells assessed as inhibition of viral replication by luciferase reporter gene assay; format: functional, cell-based, Hepacivirus hominis; conditions: Huh-7
Hepatitis C virus [9] = test: Antiviral activity against HCV genotype 1b subgenomic replicon expressing NS5B RNA dependent RNA polymerase S282T mutant infected in human HuH7 Luc-neo cells assessed as inhibition of viral replication by luciferase reporter gene assay relative to wild type HCV genotype 1b; format: functional, Hepacivirus hominis
Hepatitis C virus [10] = test: Antiviral activity against HCV genotype 1a subgenomic replicon infected in human Huh7-Lunet cells assessed as inhibition of viral replication by luciferase reporter gene assay; format: functional, cell-based, Hepacivirus hominis; conditions: subtype 1a, Huh-7
Hepatitis C virus [11] = test: Antiviral activity against HCV genotype 2a subgenomic replicon; format: functional, Hepacivirus hominis
Hepatitis C virus [12] = test: Antiviral activity against HCV genotype 3a subgenomic replicon infected in human Huh7-Lunet cells assessed as inhibition of viral replication by luciferase reporter gene assay; format: functional, cell-based, Hepacivirus hominis; conditions: Huh-7
Hepatitis C virus [13] = test: Antiviral activity against HCV genotype 4a subgenomic replicon infected in human Huh7-Lunet cells assessed as inhibition of viral replication by luciferase reporter gene assay; format: functional, cell-based, Hepacivirus hominis; conditions: Huh-7
Hepatitis C virus [14] = test: Antiviral activity against HCV genotype 6a subgenomic replicon infected in human Huh7-Lunet cells assessed as inhibition of viral replication by luciferase reporter gene assay; format: functional, cell-based, Hepacivirus hominis; conditions: Huh-7
[15] = Drug metabolism in human hepatocytes assessed as ((2R,3R,5R)-4,4-dichloro-5-(2,4-dioxo-3,4-dihydropyrimidin-1(2H)-yl)-3-hydroxytetrahydrofuran-2-yl)methyl tetrahydrogen triphosphate formation at 10 uM after 1 to 24 hrs by LC-MS/MS method; format: ADME, cell-based, Hepatocyte
[16] = Drug metabolism in human hepatocytes assessed as ((2R,3R,5R)-5-(4-amino-2-oxopyrimidin-1(2H)-yl)-4,4-dichloro-3-hydroxytetrahydrofuran-2-yl)methyl tetrahydrogen triphosphate formation at 10 uM after 1 to 24 hrs by LC-MS/MS method; format: ADME, cell-based, Hepatocyte
Canis familiaris [17] = test: Drug metabolism in dog liver assessed as ((2R,3R,5R)-5-(4-amino-2-oxopyrimidin-1(2H)-yl)-4,4-dichloro-3-hydroxytetrahydrofuran-2-yl)methyl tetrahydrogen triphosphate formation at 50 mg/kg/day, po for 4 days; format: ADME, organism-based, Canis lupus familiaris; conditions: in vivo, 96 h
Canis familiaris [18] = test: Drug metabolism in dog liver assessed as ((2R,3R,5R)-5-(4-amino-2-oxopyrimidin-1(2H)-yl)-4,4-dichloro-3-hydroxytetrahydrofuran-2-yl)methyl tetrahydrogen triphosphate formation at 50 mg/kg/day, po for 4 days measured at 4 hrs on day 4; format: ADME, organism-based, Canis lupus familiaris; conditions: in vivo
Canis familiaris [19] = test: Drug metabolism in dog liver assessed as ((2R,3R,5R)-4,4-dichloro-5-(2,4-dioxo-3,4-dihydropyrimidin-1(2H)-yl)-3-hydroxytetrahydrofuran-2-yl)methyl tetrahydrogen triphosphate formation at 50 mg/kg/day, po for 4 days measured at 4 hrs on day 4; format: ADME, organism-based, Canis lupus familiaris; conditions: in vivo
[20] = (§1) Inhibition of HCV genotype 1b NS5B Cdelta21 RNA dependent RNA polymerase using cIRES, GTP, UTP and CTP incubated for 30 mins in presence of [3H]-ATP/ATP mixture by scintillation counting method; design: species or system Hepatitis C virus subtype 1b
[21] = tested on: Hepatitis C virus subtype 1b; test: as §1
[22] = Drug metabolism in human hepatocytes assessed as ((2R,3R,4R,5R)-5-(2,4-dioxo-3,4-dihydropyrimidin-1(2H)-yl)-4-fluoro-3-hydroxy-4-methyltetrahydrofuran-2-yl)methyl tetrahydrogen triphosphate formation at 10 uM after 1 to 24 hrs by LC-MS/MS method; format: ADME, cell-based, Hepatocyte
[23] = Drug metabolism in human hepatocytes assessed as cytidine triphosphate metabolite formation at 10 uM after 1 to 24 hrs by LC-MS/MS method; format: ADME, cell-based, Hepatocyte

Compound	CC50 at 144 h [2]	EC50 (Hepatitis C virus [3])	half-life at 2 µM [4]	half-life at 2 µM [5]	half-life at 2 µM [6]	further results
CC(C)OC(=O)[C@H](C)NP(=O)(OC[C@H]1O[C@@H](n2ccc(=O)[nH]c2=O)C(F)(F)[C@@H]1O)Oc1ccccc1 (single isomer, unassigned)						EC50 (Hepatitis C virus [1]): 970 nM
CC[C@H](C)OC(=O)[C@H](C)NP(=O)(OC[C@H]1O[C@@H](n2ccc(=O)[nH]c2=O)C(Cl)(Cl)[C@@H]1O)Oc1ccccc1 (single isomer, unassigned)	> 100000 nM	83 nM	140 min	7 min	11 min	
O=c1ccn([C@@H]2O[C@H](CO)[C@@H](O)C2(Cl)Cl)c(=O)[nH]1	> 100000 nM	> 50000 nM				
O=c1ccn([C@@H]2O[C@H](COP(=O)(O)OP(=O)(O)OP(=O)(O)O)[C@@H](O)C2(F)F)c(=O)[nH]1						IC50 [7]: > 100000 nM
CC(C)OC(=O)[C@H](C)N[P@@](=O)(OC[C@H]1O[C@@H](n2ccc(=O)[nH]c2=O)C(Cl)(Cl)[C@@H]1O)Oc1ccccc1	> 100000 nM	56 nM	1380 min	43 min	27 min	EC50 (Hepatitis C virus [8]): 53 nM; Ratio EC50 (Hepatitis C virus [9]): 4.1; EC50 (Hepatitis C virus [10]): 70 nM; EC50 (Hepatitis C virus [11]): 18 nM; EC50 (Hepatitis C virus [12]): 68 nM; EC50 (Hepatitis C virus [13]): 66 nM; EC50 (Hepatitis C virus [14]): 69 nM; Drug metabolism [15]: Metabolite_Detected; Drug metabolism [16]: Metabolite_Detected; Drug metabolism (Canis familiaris [17]): Metabolite_Detected; Drug metabolism (Canis familiaris [18]): 0.93 µM; Drug metabolism (Canis familiaris [19]): 3.5 µM
C[C@@]1(F)[C@H](O)[C@@H](COP(=O)(O)OP(=O)(O)OP(=O)(O)O)O[C@H]1n1ccc(=O)[nH]c1=O [GS-461203]						Ki [7]: 490 nM
C[C@H](NP(=O)(OC[C@H]1O[C@@H](n2ccc(=O)[nH]c2=O)C(Cl)(Cl)[C@@H]1O)Oc1ccccc1)C(=O)OC1CCCCC1 (single isomer, unassigned)	> 100000 nM	160 nM	70 min	3 min	20 min	
CC(C)OC(=O)[C@H](C)NP(=O)(OC[C@H]1O[C@@H](n2ccc(=O)[nH]c2=O)C(Cl)(Cl)[C@@H]1O)Oc1ccc(C2(C)CC2)cc1 (single isomer, unassigned)	62000 nM	340 nM	60 min	10 min	8 min	
Nc1ccn([C@@H]2O[C@H](COP(=O)(O)OP(=O)(O)OP(=O)(O)O)[C@@H](O)C2(Cl)Cl)c(=O)n1						Ki [20]: 200 nM
O=c1ccn([C@@H]2O[C@H](COP(=O)(O)OP(=O)(O)OP(=O)(O)O)[C@@H](O)C2(Cl)Cl)c(=O)[nH]1						inhibition [21]: Active
CC[C@@H](C)OC(=O)[C@H](C)NP(=O)(OC[C@H]1O[C@@H](n2ccc(=O)[nH]c2=O)C(Cl)(Cl)[C@@H]1O)Oc1ccccc1 (single isomer, unassigned)	> 100000 nM	110 nM	140 min	8 min	11 min	
CC(C)OC(=O)[C@H](C)NP(=O)(OC[C@H]1O[C@@H](n2ccc(=O)[nH]c2=O)C(Cl)(Cl)[C@@H]1O)Oc1cccc(C2(C)CC2)c1 (single isomer, unassigned)	> 100000 nM	230 nM	20 min	4 min	12 min	
CC(C)OC(=O)[C@H](C)NP(=O)(OC[C@H]1O[C@@H](n2ccc(=O)[nH]c2=O)C(Cl)(Cl)[C@@H]1O)Oc1cccc(C2CCC2)c1 (single isomer, unassigned)	> 100000 nM	220 nM	20 min	3 min	8 min	
CC(C)OC(=O)[C@H](C)N[P@@](=O)(OC[C@H]1O[C@@H](n2ccc(=O)[nH]c2=O)[C@](C)(F)[C@@H]1O)Oc1ccccc1						EC50 (Hepatitis C virus [8]): 120 nM; EC50 (Hepatitis C virus [1]): 92 nM; Ratio EC50 (Hepatitis C virus [9]): 7.8; EC50 (Hepatitis C virus [10]): 170 nM; EC50 (Hepatitis C virus [11]): 50 nM; EC50 (Hepatitis C virus [12]): 130 nM; EC50 (Hepatitis C virus [13]): 230 nM; EC50 (Hepatitis C virus [14]): 180 nM; Drug metabolism [22]: Metabolite_Detected; Drug metabolism [23]: Metabolite_Detected
